# Results from US4770996A, “Identification of individuals predisposed toward alcohol abuse” (priority 1986, dated 1988).
# Experiments:
# [1] = system: platelet adenylate cyclase; assay: Platelet membrane adenylate cyclase (AC) assay, 32P-ATP to 32P-cAMP; type: biochemical, human; design: Adenylate Cyclase Activity - CsF-Stimulated / Adenylate Cyclase Activity - CsF-Stimulated, Mean ± SD: unit not given here; settings: for Enzyme Activity +Gpp(NH)p / Enzyme Activity +PGE1 (1 uM): mean ± SD; for Enzyme Activity +Gpp(NH)p: Gpp(NH)p 10 uM; for Adenylate Cyclase Activity - CsF-Stimulated / Adenylate Cyclase Activity - CsF-Stimulated, Mean ± SD / Enzyme Activity +CsF: CsF 10 mM
# Procedure: Platelets were prepared from whole blood (20 ml) which was obtained by venipuncture from healthy volunteers and alcoholic subjects. After standing at room temperature for approximately three to four hours in citrate-phosphate-dextrose solution, each blood sample was centrifuged at 180×G for two minutes. […] The PRP was centrifuged at 16,000 g for ten minutes. The pellet was resuspended in 50 ml of cold 50 mM Tris-HCl, pH 7.5, containing […] NaCl and 20 mM ethylene diamine tetraacetic acid (EDTA). The centrifugation was repeated twice, and the final pellet was resuspended in 1 ml of cold 5 mM Tris-HCl, pH 7.5, containing 5 mM EDTA. Suspensions were rapidly frozen at -70° C., and samples were stored at -70° C. for no longer than four weeks prior to assay. AC activity was assayed by a modification of previously described methods, Hoffman and Tabakoff, J. Pharmacol. Exptl. […] Platelets were thawed at room temperature, aliquots of platelets were diluted to 4 ml with 5 mM Tris-HCl buffer containing 5 mM EDTA, and the suspension was centrifuged at 39,000×G for ten minutes at 4° C. […] The reaction was stopped by placing the tubes in a boiling water bath for three minutes. […] The ^32 p-cAMP was isolated by sequential chromatography on Dowex (Sigma Chemical Co., St. Louis, Mo.) and alumina columns (Sigma Chemical Co., St. Louis, Mo.), Salomon et. al., Anal. […] To each column effluent, 10 ml of scintilation cocktail was added, and ^32 p-cAMP was quantitated in a liquid scintillation spectrometer. All values were corrected for percentage recovery of the product (^32 p-cAMP).
# [2] = system: platelet adenylate cyclase; settings: Jakobs et al., J. Recep. Res. 4:443-458, 1984; cited from earlier work
# [3] = target: T1, platelet monoamine oxidase (MAO) (Homo sapiens, UniProt P27338); assay: Platelet monoamine oxidase (MAO) assay, deamination of 14C-PEA; type: biochemical; settings: for Percent Inhibition by 400 mM Ethyl Alcohol / Percent Inhibition by 400 mM Ethyl Alcohol, Mean ± SD / Percent Inhibition by 400 mM ETOH: 12 uM PEA; for Percent Inhibition by 400 mM ETOH: mean ± SD
# T1 construct: contained approximately 15 ug of platelet protein; from tissue; host or cells: platelets (membranes) from whole blood of volunteers and alcoholic subjects
# T1 sequence (P27338 1-520): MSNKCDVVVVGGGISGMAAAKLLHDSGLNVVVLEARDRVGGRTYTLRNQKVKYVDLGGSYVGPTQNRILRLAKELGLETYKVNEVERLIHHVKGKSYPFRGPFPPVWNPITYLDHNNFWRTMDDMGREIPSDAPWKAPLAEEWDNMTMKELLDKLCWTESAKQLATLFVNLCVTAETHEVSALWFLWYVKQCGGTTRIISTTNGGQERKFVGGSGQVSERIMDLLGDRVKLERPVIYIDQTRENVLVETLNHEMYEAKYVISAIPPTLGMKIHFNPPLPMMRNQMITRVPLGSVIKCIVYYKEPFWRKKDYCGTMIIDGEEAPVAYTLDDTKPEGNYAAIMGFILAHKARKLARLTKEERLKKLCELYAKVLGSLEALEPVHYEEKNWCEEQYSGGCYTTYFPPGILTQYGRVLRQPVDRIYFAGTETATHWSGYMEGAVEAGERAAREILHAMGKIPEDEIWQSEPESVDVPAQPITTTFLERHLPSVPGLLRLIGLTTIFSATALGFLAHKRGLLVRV
# Procedure: Platelets were prepared from whole blood (20 ml) which was obtained by venipuncture from healthy volunteers and alcoholic subjects. After standing at room temperature for approximately three to four hours in citrate-phosphate-dextrose solution, each blood sample was centrifuged at 180×G for two minutes. The platelet-rich plasma (PRP) was carefully removed and platelet count was determined from aliquots (20 ul) of the PRP with a Coulter S-plus Thrombocounter. The PRP was centrifuged at 16,000 g for ten minutes. The pellet was resuspended in 50 ml of cold 50 mM Tris-HCl, pH 7.5, containing […] NaCl and 20 mM ethylene diamine tetraacetic acid (EDTA). The centrifugation was repeated twice, and the final pellet was resuspended in 1 ml of cold 5 mM Tris-HCl, pH 7.5, containing 5 mM EDTA. Suspensions were rapidly frozen at -70° C., and samples were stored at -70° C. for no longer than four weeks prior to assay.
# To measure the deamination of ^14 C-PEA, assay mixtures (total volume, 0.3 ml) contained approximately 15 ug of platelet protein. Reactions were carried out in 0.1 M sodium phosphate, pH 7.4, at 37° C. A five-minute preincubation period preceded the addition of substrate, and blanks were preincubated in the presence of 1×10^-3 M pargyline. Appropriate concentrations of ^14 C-PEA (10,000 dpm per nmole) were added to initiate the reaction, and the incubation was carried out for 15 minutes. The reaction was stopped by placing the tubes in an ice bath and adding 1.0 ml of ice-cold unlabeled PEA solution (10^-4 M) to each assay tube. A 1-ml aliquot was then removed from each tube and placed on an Amberlite™ ion exchange column, Tabakoff et. al., Psychopharmacol. 87:152 (1985). The columns were washed with two 1-ml portions of distilled water and the effluent was collected in scintillation vials. Two additional ml of water and 20 ml of scintillation fluid were added to each vial, and radioactivity was determined in a liquid scintillation spectrometer. To study the effects of ethanol or other alcohols on MAO activity, the alcohols were added to incubation mixtures five minutes prior to the addition of substrate.
smiles,measurement,setting,value
"Nc1nc2c(ncn2[C@@H]2O[C@H](COP(=O)(O)OP(=O)(O)NP(=O)(O)O)[C@@H](O)[C@H]2O)c(=O)[nH]1 [Gpp(NH)p, guanylylimidodiphosphate]",Enzyme Activity +Gpp(NH)p,"[1]; platelets of Alcoholics, n=43, significant vs control",37.8 ± 14.4 pmole cAMP/mg protein/minute
same,Enzyme Activity +Gpp(NH)p,"[1]; platelets of Controls, n=36",50.4 ± 15.0 pmole cAMP/mg protein/minute
same,Enzyme Activity +Gpp(NH)p,"[1]; platelets of Recovering Alcoholics, n=23, significant vs control",37.2 ± 16.5 pmole cAMP/mg protein/minute
Nc1ncnc2c1ncn2[C@@H]1O[C@H](COP(=O)(O)OP(=O)(O)OP(=O)(O)O)[C@@H](O)[C@H]1O [Mg-adenosine triphosphate],maximal activity (Vmax) of adenylate cyclase,"[1]; platelets of control subjects, 10 mM Mg++, varying ATP, mean±SD, n=3",15.1±2.4 pmole cAMP produced/min/mg pro
same,Km,"[1]; platelets of control subjects, 10 mM Mg++, varying ATP, mean±SEM, n=3, read-out: Km of adenylate cyclase for Mg-adenosine triphosphate (ATP)",20.1 ± 3.8 µM
"CCCCC[C@H](O)/C=C/[C@H]1[C@H](O)CC(=O)[C@@H]1CCCCCCC(=O)O [PGE1, prostaglandin E1]",Enzyme Activity +PGE1 (1 uM),"[1]; platelets of Alcoholics, n=34, significant vs control",84.4 ± 36.1 pmole cAMP/mg protein/minute
same,Enzyme Activity +PGE1 (1 uM),"[1]; platelets of Controls, n=21",115.5 ± 32.9 pmole cAMP/mg protein/minute
same,Enzyme Activity +PGE1 (1 uM),"[1]; platelets of Recovering Alcoholics, n=8, significant vs control and vs alcoholics",42.7 ± 12.8 pmole cAMP/mg protein/minute
[Na+] [Na^+],effect of sodium ion on stimulation of platelet AC activity,[2],inhibits stimulation of platelet AC activity
"[Cs+].[F-] [CsF, cesium fluoride]",Adenylate Cyclase Activity - CsF-Stimulated,"[1]; control subject No. 5, Sample 1",83.6
same,Adenylate Cyclase Activity - CsF-Stimulated,"[1]; control subject No. 5, Sample 2 (one week interval)",69.5
same,Adenylate Cyclase Activity - CsF-Stimulated,"[1]; control subject No. 5, Sample 3 (one week interval)",72.3
same,"Adenylate Cyclase Activity - CsF-Stimulated, Mean ± SD","[1]; control subject No. 5, mean of 3 samples",75.1 ± 7.5
same,Adenylate Cyclase Activity - CsF-Stimulated,"[1]; control subject No. 6, Sample 1",104.2
same,Adenylate Cyclase Activity - CsF-Stimulated,"[1]; control subject No. 6, Sample 2 (one week interval)",98.0
same,Adenylate Cyclase Activity - CsF-Stimulated,"[1]; control subject No. 6, Sample 3 (one week interval)",100.2
same,"Adenylate Cyclase Activity - CsF-Stimulated, Mean ± SD","[1]; control subject No. 6, mean of 3 samples",100.8 ± 3.1
same,Enzyme Activity +CsF,"[1]; platelets of Alcoholics, mean (SD 27.8), n=107, significant vs control",78.2 pmole cAMP/mg protein/minute
same,Enzyme Activity +CsF,"[1]; platelets of Controls, mean (SD 28.7), n=49",97.9 pmole cAMP/mg protein/minute
same,Enzyme Activity +CsF,"[1]; platelets of Recovering Alcoholics, mean (SD 27.2), n=38, significant vs control",70.6 pmole cAMP/mg protein/minute
CCO [ethyl alcohol],nature of MAO inhibition by ethyl alcohol added in vitro,"[3]; in vitro, amount of inhibition depended on substrate concentration","reversible and was ""competitive"" in nature"
same,Percent Inhibition by 400 mM Ethyl Alcohol,"[3]; patient No. 1, Sample 1 (baseline)",7.0%
same,Percent Inhibition by 400 mM Ethyl Alcohol,"[3]; patient No. 1, Sample 2 (five days later)",7.6%
same,Percent Inhibition by 400 mM Ethyl Alcohol,"[3]; patient No. 1, Sample 3 (six days later)",6.1%
same,"Percent Inhibition by 400 mM Ethyl Alcohol, Mean ± SD","[3]; patient No. 1, mean of 3 samples",6.9 ± 0.8%
same,Percent Inhibition by 400 mM Ethyl Alcohol,"[3]; patient No. 2, Sample 1 (baseline)",13.1%
same,Percent Inhibition by 400 mM Ethyl Alcohol,"[3]; patient No. 2, Sample 2 (five days later)",7.9%
same,Percent Inhibition by 400 mM Ethyl Alcohol,"[3]; patient No. 2, Sample 3 (six days later)",9.8%
same,"Percent Inhibition by 400 mM Ethyl Alcohol, Mean ± SD","[3]; patient No. 2, mean of 3 samples",10.3 ± 2.6%
same,Percent Inhibition by 400 mM ETOH,"[3]; platelets of Alcoholics, n=54, P < 0.01 vs control",12.6 ± 7.0%
same,Percent Inhibition by 400 mM ETOH,"[3]; platelets of Controls, n=28",7.5 ± 6.9%
same,Percent Inhibition by 400 mM ETOH,"[3]; platelets of Recovering Alcoholics, n=22, P < 0.05 vs control",11.4 ± 6.2%
